In brackets after ≈: the same amount, converted by molar mass. Read-outs that look alike come from different tables or passages of the source. Bounds are passed on as bounds.

Data set [1] in a line: Kinetic aqueous solubility assay. The data set is classed as physicochemical. Set-up: key to Kinetic solubility (no value): –: Compounds with no value were under the detection limit. The settings on record: for solubility kinetic at 2 h: PBS buffer, pH 6.5, aqueous buffer, kinetic from dmso stock; for Kinetic solubility (no value): PBS pH 6.5, 2 hours, dash = under the detection limit. The protocol: Kinetic aqueous solubility assay. All compounds were dissolved in DMSO to make stock solutions at 10 mM concentration. […] 5 μL of the stock solutions was pipetted into a 96-well plate containing 495 μL PBS (pH 6.5) in each well to achieve 100 μM target concentration (1% DMSO). […] The plate was then sealed and shaken for 2 hours at room temperature. Each compound was investigated in 3 replicates. After 2 hours, the samples were filtered on a MultriscreenHTS filter plate (MSSLBPC, polycarbonate membrane, Merck KGaA, Darmstadt, Germany) by a Millipore Vacuum Manifold (Merck KGaA, Darmstadt, Germany). Before analyzing, 20 vol % acetonitrile was added to each well to avoid sample precipitation during HPLC analysis.
(§1) Analytical methods. […] For a 7-minute long gradient program, eluents A (0.1% formic acid in water) and B (0.1% formic acid in acetonitrile) were used as follows: initial conditions with 30% B were kept for 1 minute, then 90% B was achieved within 3 minutes, kept for further 1 minute, finally the initial condition was adjusted and equilibrated for further 2 minutes. 5-Point calibration series were measured from each compound resulting in R^2 ≈ 0.9990–0.9999.

Data set [2] can be described thus: Determination of the capacity factor (logk) by RP-HPLC. The class given is physicochemical. The settings on record: reversed-phase chromatographic capacity factor, eluent pH 7.0. As to the method:
Determination of the capacity factor. […] The same analytical method was used with modified eluents: eluent A was 20 mM triethylamine with phosphoric acid (pH 7.0), and eluent B was acetonitrile without additives. The method time was slightly extended, with a 1-minute longer gradient, resulting in an 8-minute program. The capacity factor was calculated with Equation 3: […]
where k is the capacity factor, tR is the retention time (min) of the compounds and t0 is the dead-time of the column (min).

Data set [3] in a line: In vitro gastrointestinal permeability assay (GI PAMPA). The class given is in vitro ADME. The settings on record: for GI PAMPA membrane retention (MR) category: class in words; for GI PAMPA membrane retention / GI PAMPA penetration: donor pH 6.5, acceptor pH 7.4, 1% DMSO, 37 °C, 4 hours, mean of 3 replicates; for GI PAMPA permeability in words: wording of the text, outside the class key. As to the method: In vitro gastrointestinal permeability assay. […] The artificial membrane was fabricated by dissolving ʟ-α-phosphatidylcholine (16 mg) and cholesterol (4 mg) in a solvent mixture of chloroform, hexane and dodecane (5/70/25 vol %). Each well of the PAMPA donor plate (MAIPNTR, PVDF membrane, Merck KGaA, Darmstadt, Germany) was coated with 5 μL lipid solution. Thereafter the donor plate was fitted into the acceptor plate (MSSACCEPTOR, Merck KGaA, Darmstadt, Germany) already containing 300 μL PBS (pH 7.4) solutions with 1% DMSO. Finally, 150 μL of the initial solutions was pipetted into the donor plate, the plate sandwich was covered with a wet paper tissue and with a plate lid to avoid evaporation, and the system was incubated at 37 °C for 4 hours. Then samples were taken from the donor and acceptor wells and analyzed along with the initial solutions by HPLC.
[1] Pe=−2.303/A⋅(t−τss)⋅(1/1+ra)⋅lg[−ra+(1+ra/1−MR)⋅cD(t)/cD(0)]
[2] MR=1−cD(t)/cD(0)−VAcA(t)/VDcD(0)
where A is the filter area (0.24 cm^2), t is the incubation time (s), τss is the time to reach steady-state (s), ra is the sink asymmetry ratio approximated with a value of 10^−14, VD and VA are the volumes in the donor (0.15 mL) and the acceptor phase (0.3 mL), cD(t) is the concentration of the compound in the donor phase at time point t (mol/L), cD(0) is the concentration of the compound in the donor phase at time point zero (initial solutions, mol/L), cA(t) is the concentration of the compound in the acceptor phase at time point t (mol/L), cA(0) is the concentration of the compound in the acceptor phase at time point zero (mol/L).
as §1

The mark [4] stands for this setting: PBS pH 6.5, 100 µM target concentration (1% DMSO), 2 hours, room temperature, mean of 3 replicates.
[5] abbreviates: PBS pH 6.5, 100 µM target concentration (1% DMSO), 2 hours, room temperature, mean of 3 replicates, read-out: Kinetic solubility.
Where [6] appears, read: class in words, read-out: Kinetic solubility category.

In data set [1] (setting [4]), `CN1N=C(c2ccccc2)c2ccc3c4c([nH]c3c2S1(=O)=O)CCC4` [Compound 3i] displayed a Kinetic solubility of 1.7 ± 0.3 µM. For the same compound, in data set [2], the “logk (−) pH 7.0” value came to 0.645.
Usually kinetic solubility stands for the concentration staying in solution when a stock, usually in DMSO, is diluted into the medium. Turning to `CC1=NN(C)S(=O)(=O)c2c(NN=C3CCCCC3)cccc21` [Compound 7e, 8-(2-Cyclohexylidenehydrazino)-2,4-dimethyl-2H-1,2,3-benzothiadiazine 1,1-dioxide], in data set [1] (setting [5]), the kinetic solubility at 2 h was 86.3 ± 3.9 µM (≈ 27.7 µg/mL). In addition, the kinetic solubility at 2 h in data set [1] (setting [6]) was above 30 µM. Besides, in data set [3], the “GI PAMPA membrane retention (MR) category” value is “extremely high (extremely high above 90%)”, the “GI PAMPA membrane retention” value was 97.5 ± 0.3%, the “GI PAMPA penetration” value was 0.0 10^−6 cm/s and the “GI PAMPA permeability in words” value is recorded as “nearly zero”. Further, the “logk (−) pH 7.0” value in data set [2] is listed as 0.626.
Consider `CCC(CC)=NNc1cccc2c1S(=O)(=O)N(C)N=C2c1ccccc1` [Compound 7g], for which, in data set [1] (room temperature), the “Kinetic solubility (no value)” value is recorded as “–”. In addition, the “logk (−) pH 7.0” value in data set [2] is on record as 0.677.
Regarding `CCC=NNc1cccc2c1S(=O)(=O)N(C)N=C2c1ccccc1` [crude 7h], the kinetic solubility at 2 h in data set [1] (setting [5]) is 0.7 ± 0.02 µM (≈ 0.24 µg/mL). For the same compound, the “logk (−) pH 7.0” value in data set [2] was found to be 0.645.
The matching figures for `Cc1c[nH]c2c3c(ccc12)C(c1ccccc1)=NN(C)S3(=O)=O` [Compound 3h, 2,7-Dimethyl-4-phenyl-2,9-dihydro[1,2,3]thiadiazino[5,6-g]indole 1,1-dioxide]: 8.6 ± 0.3 µM (≈ 2.8 µg/mL) and 0.614.
In data set [1] (setting [4]), `CCC(CC)=NNc1cccc2c1S(=O)(=O)N(C)N=C2C` [Compound 7b] registered a Kinetic solubility of 6.2 ± 0.3 µM. Further, in data set [2], the “logk (−) pH 7.0” value is 0.625.
Consider `Cc1[nH]c2c3c(ccc2c1C)C(c1ccccc1)=NN(C)S3(=O)=O` [Compound 3f], for which the solubility (kinetic) at 2 h in data set [1] (setting [5]) turned out to be 5 ± 0.3 µM (≈ 1.7 µg/mL). In data set [2], the “logk (−) pH 7.0” value was 0.629.
Consider `CN1N=C(c2ccccc2)c2ccc3c([nH]c4c5ccccc5ccc34)c2S1(=O)=O` [Compound 10b], for which the “Kinetic solubility (no value)” value in data set [1] (room temperature) was “–”. The “logk (−) pH 7.0” value in data set [2] came to 0.685.
With `CCc1[nH]c2c3c(ccc2c1C)C(C)=NN(C)S3(=O)=O` [Compound 3b], the solubility (kinetic) at 2 h in data set [1] (setting [5]) was 31 ± 2.2 µM (≈ 9.03 µg/mL). The solubility (kinetic) at 2 h in data set [1] (setting [6]) is above 30 µM. In data set [3], the “GI PAMPA membrane retention (MR) category” value is given as “extremely high (extremely high above 90%)”, the “GI PAMPA membrane retention” value stood at 98.5 ± 0.1%, the “GI PAMPA penetration” value is reported as 0.0 10^−6 cm/s and the “GI PAMPA permeability in words” value is recorded as “nearly zero”. For the same compound, the “logk (−) pH 7.0” value in data set [2] was determined as 0.603.
Consider `CC1=NN(C)S(=O)(=O)c2c1ccc1c3c([nH]c21)CCC3` [Compound 3d], for which the kinetic solubility at 2 h in data set [1] (setting [5]) is 3.2 ± 0.2 µM (≈ 0.926 µg/mL). For the same compound, the “logk (−) pH 7.0” value in data set [2] was found to be 0.591.
The matching figures for `CC1=NN(C)S(=O)(=O)c2c1ccc1c(C)c(C)[nH]c21` [Compound 3a]: 1.5 ± 0.09 µM (≈ 0.416 µg/mL) and 0.580.
Turning to `CC1=NN(C)S(=O)(=O)c2c1ccc1c2[nH]c2c3ccccc3ccc12` [Compound 10a], in data set [1] (room temperature), the “Kinetic solubility (no value)” value was “–”. Moreover, in data set [2], the “logk (−) pH 7.0” value is listed as 0.637.
Take `CN1N=C(c2ccccc2)c2ccc3c4c([nH]c3c2S1(=O)=O)CCCC4` [Compound 3j]: the “Kinetic solubility (no value)” value in data set [1] (room temperature) is recorded as “–”. Further, the “logk (−) pH 7.0” value in data set [2] is 0.660.

These data come from PMC12557438, “Thiadiazino-indole, thiadiazino-carbazole and benzothiadiazino-carbazole dioxides: synthesis, physicochemical and early ADME characterization of representatives of new tri-, tetra- and pentacyclic ring systems and their intermediates” (Beilstein Journal of Organic Chemistry, 2025).
